Data: publication PMC8878317, “Chemogenomics identifies acetyl-coenzyme A synthetase as a target for malaria treatment and prevention” (Cell Chemical Biology, 2022)

How the values were obtained:
PfAcAS WT = PfAcAS WT (Plasmodium falciparum, UniProt C6KTB4); test: EnzChek assay, recombinant PfAcAS WT (steady-state kinetics and IC50); type: biochemical, P. falciparum; settings: substrate varied, other two saturating
Protocol: (§1) Steady-state kinetic measurements were conducted at room temperature using a PheraStar plate reader (BMG). The first step of the reaction of PfAcAS, which produces inorganic pyrophosphate (PPi) that is converted to two molecules of inorganic phosphate using a pyrophosphatase enzyme, was continuously monitored using the EnzChek Phosphate Assay Kit, which gives an absorbance readout at 360 nm (Figure 4A) ([Webb, 1992]). […] By adding CoA, the reaction rapidly proceeds to the second step resulting in further release of pyrophosphate, making the EnzChek assay a suitable option to continuously monitor the activity of PfAcAS. Typical kinetic assays were carried out in clear, flat-bottom, polystyrene, 384-well plates (Greiner) in an 80 μL reaction volume containing 100 mM HEPES (pH7.4), 100 mM NaCl, 250 mM KCl, 50 mM MgCl2, 1 mM DTT, 0.004% Tween 20, 0.5 U/mL pyrophosphatase, 0.1 mM MESG, 0.5 U/mL PNP, 2 mM ATP, 2 mM acetate, 0.5 mM CoA and 5 nM recombinant PfAcAS WT or 10 nM recombinant PfAcAS A597V or T648M. Assays were performed by adding 40 μL of a 2-times concentrated substrate mixture including MESG to all wells, and the reactions started by adding 40 μL of a 2-times concentrated reaction mixture containing all other components. The reactions were carried out for 2 to 4 hr with absorbance readings at 360 nm every two to four minutes. Reaction rates were extracted from the linear phase of activity, usually using 10 to 20 points between times of 30 and 100 min of the reactions. Using a phosphate standard curve obtained under the same buffer conditions used for the PfAcAS reactions (Figure S5A), the rates were then converted to velocity per second, conversion of one nanomolar of phosphate, per nanomolar of enzyme, per second. The substrates Km values were determined by varying the concentration of one of the substrates at saturating concentration of the other two substrates. Steady-state data were fitted using the nonlinear, least-squares, curve-fitting programs of Sigma-Plot for Windows, version 14.0. Individual saturation curves were fit to Equation 1(Equation 1) v=VS/K+S where V is the maximal velocity, S is the substrate concentration and K is the Michaelis constant for the substrate (Km). Individual saturation curves displaying substrate inhibition were fit to Equation 2(Equation 2) v=VS/K+S×(1+S/Ks) where Ks is the substrate inhibition constant.
(§2) To determine the steady-state inhibition parameters and patterns associated with both inhibitors, PfAcAS activity was studied in the presence of variable concentrations of one substrate, ATP, acetate or CoA, fixed saturating concentration of the other two substrates (acetate and CoA, ATP and CoA, or ATP and acetate) and several fixed concentrations of inhibitor. Assay ready plates containing different concentrations of inhibitor were prepared using an Echo 550 acoustic dispenser (Labcyte Inc.). The assays were carried out as described in the previous section. […] For better comparison between both inhibitors and proteins, the ymin was fixed to zero and the ymax to 100. Inhibition data showing linear, competitive patterns in double-reciprocal plots were fit to Equation 4(Equation 4) v=VS/K(1+I/Ki)+S where Ki is the dissociation constant for the enzyme-inhibitor complex. Inhibition data showing linear, mixed inhibition patterns in double-reciprocal plots were fit to Equation 5(Equation 5) v=VS/K(1+I/Kis)+S(1+I/Kii) where Kis is the dissociation constant for the free enzyme-inhibitor complex and Kii is the dissociation constant for the enzyme-substrate-inhibitor complex. Inhibition data showing linear, uncompetitive patterns in double-reciprocal plots were fit to Equation 6(Equation 6) v=VS/K+S(1+I/Ki)

PfAcAS T648M = biological target: T1, PfAcAS T648M (Plasmodium falciparum, UniProt C6KTB4, T648M); test: EnzChek assay, recombinant PfAcAS T648M; type: biochemical, P. falciparum; settings: substrate varied, other two saturating
T1 sequence (C6KTB4 1-997 T648M): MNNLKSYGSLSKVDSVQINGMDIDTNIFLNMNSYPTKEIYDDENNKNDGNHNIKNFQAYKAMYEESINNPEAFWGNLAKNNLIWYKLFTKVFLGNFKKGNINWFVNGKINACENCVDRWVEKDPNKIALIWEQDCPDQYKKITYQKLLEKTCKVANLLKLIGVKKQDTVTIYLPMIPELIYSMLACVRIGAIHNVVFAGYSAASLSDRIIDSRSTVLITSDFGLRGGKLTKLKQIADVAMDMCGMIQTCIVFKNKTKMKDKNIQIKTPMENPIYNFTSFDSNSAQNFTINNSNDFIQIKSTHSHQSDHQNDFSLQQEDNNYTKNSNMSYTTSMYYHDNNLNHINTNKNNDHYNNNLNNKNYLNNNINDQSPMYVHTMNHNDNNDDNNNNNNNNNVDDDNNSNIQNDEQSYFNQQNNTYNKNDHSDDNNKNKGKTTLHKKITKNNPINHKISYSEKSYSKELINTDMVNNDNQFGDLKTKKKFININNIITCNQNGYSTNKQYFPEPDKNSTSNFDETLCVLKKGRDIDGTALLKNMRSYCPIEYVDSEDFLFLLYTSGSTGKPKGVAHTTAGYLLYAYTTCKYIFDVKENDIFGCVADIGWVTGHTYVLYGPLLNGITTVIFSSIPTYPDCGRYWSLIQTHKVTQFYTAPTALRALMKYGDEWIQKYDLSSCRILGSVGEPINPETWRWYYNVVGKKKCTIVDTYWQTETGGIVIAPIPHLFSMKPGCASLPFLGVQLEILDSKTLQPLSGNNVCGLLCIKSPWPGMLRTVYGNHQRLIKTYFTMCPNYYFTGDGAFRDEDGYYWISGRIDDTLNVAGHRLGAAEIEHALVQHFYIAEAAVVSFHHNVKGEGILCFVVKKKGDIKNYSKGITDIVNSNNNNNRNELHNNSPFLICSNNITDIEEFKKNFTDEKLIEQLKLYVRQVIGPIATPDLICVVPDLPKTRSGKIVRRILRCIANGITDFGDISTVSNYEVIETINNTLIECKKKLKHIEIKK
Protocol: as §1, §2

PfAcAS A597V = biological target: T2, PfAcAS A597V (Plasmodium falciparum, UniProt C6KTB4, A597V); test: EnzChek assay, recombinant PfAcAS A597V; type: biochemical, P. falciparum; settings: substrate varied, other two saturating
T2 sequence (C6KTB4 1-997 A597V): T1 sequence (C6KTB4 1-997 T648M)
Protocol: as §1, §2

[1] = tested on: P. falciparum 3D7 parasites; test: Metabolomic profiling of compound-treated parasites (LC/MS); type: cell-based; set-up: Metabolite data: dTMP / Metabolite data: GMP / Metabolite data: S-Adenosyl-L-Homocysteine / Metabolite data: 1_3-Bisphosphoglyceric acid: scale not given here;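 as to Metabolite data: 3-Phosphoglycerate: Log2 fold change in abundance versus untreated parasite controls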;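 as to Metabolite data: Myo-Inositol: Log2 fold change in abundance versus untreated parasite controls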;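 as to Metabolite data: N-Carbamoyl-L-Aspartate: Log2 fold change in abundance versus untreated parasite controls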;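 as to Metabolite data: Nicotinate: Log2 fold change in abundance versus untreated parasite controls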
How it was run: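 Magnetically purified trophozoites (1×10^8 parasites/mL) recovered 1 h in RPMI 1640, incubated a further 2.5 h, quenched in 90% methanol with labeled aspartate. Extracts analysed by reverse-phase C18 LC with negative-mode Orbitrap MS; peak areas normalized to internal standards, blank-subtracted and averaged by condition.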

## Nc1ncnc2c1ncn2[C@@H]1O[C@H](COP(=O)(O)OP(=O)(O)OP(=O)(O)O)[C@@H](O)[C@H]1O [ATP]
PfAcAS WT
  Km: 93 µM
  Vmax (s-1), PfAcAS WT: 2.4 ± 0.03 s⁻¹
PfAcAS T648M
  Km: 400 ± 17 µM
  Vmax (s-1), PfAcAS T648M: 1.9 ± 0.03 s⁻¹
PfAcAS A597V
  Km: 140 ± 5 µM
  Vmax (s-1), PfAcAS A597V: 0.54 ± 0.01 s⁻¹

## Cc1cc(Nc2ccc3ccccc3c2)n2ncnc2n1 [DSM1]
[1]
  Metabolite data: 1_3-Bisphosphoglyceric acid: 0
  Metabolite data: 2_3-Diphosphoglyceric acid: -0.2991
  Metabolite data: 3-Phosphoglycerate: -0.4141
  Metabolite data: 4-Aminobutyrate: 0.009246
  Metabolite data: 4-Phosphopantothenate: -0.5403
  Metabolite data: 4-phosphopantetheine: 0
  Metabolite data: 5-aminopentanoic acid: 0
  Metabolite data: 5-phosphoribosyl-1-pyrophosphate: 0
  Metabolite data: 6-Phospho-D-Gluconate: -0.253
  Metabolite data: ADP-D-Glucose: -0.1243
  Metabolite data: Acetyl-CoA: -0.3243
  Metabolite data: Acetyllysine: -0.16
  Metabolite data: Aconitate: -0.837
  Metabolite data: CDP: -0.7937
  Metabolite data: CDP-Ethanolamine: -0.6098
  Metabolite data: CDP-choline: 0
  Metabolite data: CMP: -1.862
  Metabolite data: CTP: -3.137
  Metabolite data: Citrate/Isocitrate: -0.6885
  Metabolite data: Cyclic-AMP: -0.9051
  Metabolite data: Dihydroorotate: 2.672
  Metabolite data: FAD: -0.1625
  Metabolite data: FMN: -0.9996
  Metabolite data: Fructose-1,6-Bisphosphate: -0.4129
  Metabolite data: Fumarate: -1.402
  Metabolite data: GDP: 0.4797
  Metabolite data: GMP: 0.1634
  Metabolite data: GTP: -1.061
  Metabolite data: Glucose-1/6-Phosphate: -0.4979
  Metabolite data: Glutathione Disulfide: -0.412
  Metabolite data: Hexose: 0
  Metabolite data: Hydroxyisocaproic acid: 0
  Metabolite data: Indole: -0.8571
  Metabolite data: Ketoleucine: 0
  Metabolite data: L-arginino-succinate: 0
  Metabolite data: Lactate: -0.809
  Metabolite data: Malate: -1.549
  Metabolite data: Myo-Inositol: -1.331
  Metabolite data: N-Acetyl-Glutamate: -0.2257
  Metabolite data: N-Acetyl-L-Alanine: -0.1646
  Metabolite data: N-Acetyl-L-Ornithine: -0.5891
  Metabolite data: N-Carbamoyl-L-Aspartate: 2.4139
  Metabolite data: NAD+: -0.1986
  Metabolite data: NADH: 0.07835
  Metabolite data: NADP+: -0.1908
  Metabolite data: NADPH: -0.3915
  Metabolite data: Nicotinate: -0.7359
  Metabolite data: Octulose 8/1-Phosphate: -0.4585
  Metabolite data: Orotate: -2.835
  Metabolite data: PD: -0.209
  Metabolite data: PE: -0.4415
  Metabolite data: PEEK: -0.4847
  Metabolite data: Phenol Red: 0
  Metabolite data: Pyroglutamic acid: -0.2671
  Metabolite data: S-Adenosyl-L-Homocysteine: -0.1944
  Metabolite data: S-methyl-5'-thioadenosine: -0.4315
  Metabolite data: SD: -0.8655
  Metabolite data: Sedoheptulose Bisphosphate: -0.2224
  Metabolite data: UDP: -2.0359
  Metabolite data: UDP-D-Glucose: -0.2988
  Metabolite data: UDP-D-Glucuronate: -0.2168
  Metabolite data: UDP-N-Acetyl-Glucosamine: -0.4693
  Metabolite data: UMP: -2.06
  Metabolite data: UTP: -4.388
  Metabolite data: a-ketoglutarate: -0.7348
  Metabolite data: acetyl-aspartate: 0
  Metabolite data: arginine: 0
  Metabolite data: asparagine: 0
  Metabolite data: aspartate: 0
  Metabolite data: biotin: 0
  Metabolite data: chlorpropamide: 0
  Metabolite data: coenzyme A: 0
  Metabolite data: dAMP: 1.7179
  Metabolite data: dATP: -0.3141
  Metabolite data: dCDP: -0.1509
  Metabolite data: dCMP: -1.099
  Metabolite data: dCTP: -2.549
  Metabolite data: dGDP/ADP: 0.1331
  Metabolite data: dGMP/AMP: 0.02924
  Metabolite data: dGTP/ATP: 0
  Metabolite data: dTDP: -1.607
  Metabolite data: dTMP: -2.786
  Metabolite data: dTTP: -3.44
  Metabolite data: folate: 0
  Metabolite data: glucono-lactone: 0
  Metabolite data: glutamate: 0
  Metabolite data: glutamine: 0
  Metabolite data: glutathione: 0
  Metabolite data: histidine: 0
  Metabolite data: hydroxyproline/Aminolevulinate: 0
  Metabolite data: isoleucine: 0
  Metabolite data: leucine: 0
  Metabolite data: maleic acid: 0
  Metabolite data: methionine: 0
  Metabolite data: nicotinamide mononucleotide: 0
  Metabolite data: orotidine-5'-phosphate: 0
